Assay results from the supplement of paper PMC11061612.

Experiments:
Assay in all cases: Bliss excess, mean over the matrix (fraction); higher = more synergy
[1] = tested on: MDA-MB-436 (Breast Carcinoma)
Summary of the method: (§1)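 Bliss excess equals the observed combination effect minus the expected value EA + EB − EA·EB, where EA and EB are the effects of each agent alone. Combination Emax is the second-highest inhibition within the matrix. Inhibition was scaled from CellTiter-Glo 2.0 luminescence, with 0 set by vehicle wells and 1 by blank wells, after 72 hours of two-drug dosing of cells plated in 1536-well plates.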

[2] = tested on: WM1552C (Melanoma)
Summary of the method: as §1

[3] = tested on: LU-165 (Small Cell Lung Carcinoma)
Summary of the method: as §1

[4] = tested on: JHU-022 (Oral Cavity Carcinoma)
Summary of the method: as §1

[5] = tested on: SK-HEP-1 (Hepatocellular Carcinoma)
Summary of the method: as §1

[6] = tested on: NCI-H1651 (Lung Adenocarcinoma)
Summary of the method: as §1

[7] = tested on: HCC70 (Breast Carcinoma)
Summary of the method: as §1

[8] = tested on: EB2 (Burkitt's Lymphoma)
Summary of the method: as §1

[9] = tested on: EW-7 (Ewing's Sarcoma)
Summary of the method: as §1

[10] = tested on: HCC1395 (Breast Carcinoma)
Summary of the method: as §1

[11] = tested on: SW620 (Colorectal Carcinoma)
Summary of the method: as §1

[12] = tested on: NCI-H441 (Lung Adenocarcinoma)
Summary of the method: as §1

[13] = tested on: A2780 (Ovarian Carcinoma)
Summary of the method: as §1

[14] = tested on: PEO1 (Ovarian Carcinoma)
Summary of the method: as §1

[15] = tested on: KYSE-220 (Esophageal Squamous Cell Carcinoma)
Summary of the method: as §1

[16] = tested on: UACC-812 (Breast Carcinoma)
Summary of the method: as §1

[17] = tested on: CGTH-W-1 (Thyroid Gland Carcinoma)
Summary of the method: as §1

[18] = tested on: JHH-2 (Hepatocellular Carcinoma)
Summary of the method: as §1

[19] = tested on: NCI-H2087 (Lung Adenocarcinoma)
Summary of the method: as §1

[20] = tested on: IM-9 (Non-Cancerous)
Summary of the method: as §1

| Structure (SMILES) | Bliss excess [1] | Bliss excess [2] | Bliss excess [3] | Bliss excess [4] | Bliss excess [5] | Bliss excess [6] | Bliss excess [7] | Bliss excess [8] | Bliss excess [9] | Bliss excess [10] | Bliss excess [11] | Bliss excess [12] | Bliss excess [13] | Bliss excess [14] | Bliss excess [15] | Bliss excess [16] | Bliss excess [17] | Bliss excess [18] | Bliss excess [19] | Bliss excess [20] |
| --- | --- | --- | --- | --- | --- | --- | --- | --- | --- | --- | --- | --- | --- | --- | --- | --- | --- | --- | --- | --- |
| C[C@@H](c1ccc2nccn2c1)n1nnc2ncc(-c3cnn(C)c3)nc21 [Savolitinib] + CC1(C)CCC(CN2CCN(c3ccc(C(=O)NS(=O)(=O)c4ccc(NCC5CCOCC5)c([N+](=O)[O-])c4)c(Oc4cnc5[nH]ccc5c4)c3)CC2)=C(c2ccc(Cl)cc2)C1 [Venetoclax] (first compound max 1 µM, 7x7, partner max 1 µM) | -0.0228 | -0.0623 | -0.0126 | -0.0621 | -0.0267 | -0.0356 | -0.0361 | -0.0391 | -0.0242 | -0.0095 | -0.0727 | -0.029 | -0.0843 | -0.0441 | -0.0573 | -0.043 | -0.0378 | -0.0705 | -0.0716 | 0.0452 |
| C[C@@H](c1ccc2nccn2c1)n1nnc2ncc(-c3cnn(C)c3)nc21 [Savolitinib] + Cc1c2c(nn1C)CSCc1cc(n(C)n1)CSc1cc(c3ccccc3c1)OCCCc1c(C(=O)O)n(C)c3c-2c(Cl)ccc13 [AZD5991] (first compound max 1 µM, 7x7, partner max 1 µM) | -0.0243 | -0.079 | -0.0046 | -0.0742 | -0.0402 | -0.0358 | -0.0312 | -0.0501 | -0.0336 | -0.0699 | -0.0537 | -0.0416 | -0.074 | -0.0397 | -0.025 | 0.0174 | -0.0315 | -0.0228 | 0.0097 | 0.0478 |
